Molecules are shown by their SMILES.

The target in this assay is T1, human TRPM8 (Homo sapiens, UniProt Q7Z2W7).
T1 construct: expressed in transfected cells; host or cells: Chinese hamster ovary (CHO) cells, T-REx tetracycline-inducible expression system (Invitrogen), co-transfected with pcDNA3.1 jellyfish aequorin
T1 sequence (Q7Z2W7 whole entry): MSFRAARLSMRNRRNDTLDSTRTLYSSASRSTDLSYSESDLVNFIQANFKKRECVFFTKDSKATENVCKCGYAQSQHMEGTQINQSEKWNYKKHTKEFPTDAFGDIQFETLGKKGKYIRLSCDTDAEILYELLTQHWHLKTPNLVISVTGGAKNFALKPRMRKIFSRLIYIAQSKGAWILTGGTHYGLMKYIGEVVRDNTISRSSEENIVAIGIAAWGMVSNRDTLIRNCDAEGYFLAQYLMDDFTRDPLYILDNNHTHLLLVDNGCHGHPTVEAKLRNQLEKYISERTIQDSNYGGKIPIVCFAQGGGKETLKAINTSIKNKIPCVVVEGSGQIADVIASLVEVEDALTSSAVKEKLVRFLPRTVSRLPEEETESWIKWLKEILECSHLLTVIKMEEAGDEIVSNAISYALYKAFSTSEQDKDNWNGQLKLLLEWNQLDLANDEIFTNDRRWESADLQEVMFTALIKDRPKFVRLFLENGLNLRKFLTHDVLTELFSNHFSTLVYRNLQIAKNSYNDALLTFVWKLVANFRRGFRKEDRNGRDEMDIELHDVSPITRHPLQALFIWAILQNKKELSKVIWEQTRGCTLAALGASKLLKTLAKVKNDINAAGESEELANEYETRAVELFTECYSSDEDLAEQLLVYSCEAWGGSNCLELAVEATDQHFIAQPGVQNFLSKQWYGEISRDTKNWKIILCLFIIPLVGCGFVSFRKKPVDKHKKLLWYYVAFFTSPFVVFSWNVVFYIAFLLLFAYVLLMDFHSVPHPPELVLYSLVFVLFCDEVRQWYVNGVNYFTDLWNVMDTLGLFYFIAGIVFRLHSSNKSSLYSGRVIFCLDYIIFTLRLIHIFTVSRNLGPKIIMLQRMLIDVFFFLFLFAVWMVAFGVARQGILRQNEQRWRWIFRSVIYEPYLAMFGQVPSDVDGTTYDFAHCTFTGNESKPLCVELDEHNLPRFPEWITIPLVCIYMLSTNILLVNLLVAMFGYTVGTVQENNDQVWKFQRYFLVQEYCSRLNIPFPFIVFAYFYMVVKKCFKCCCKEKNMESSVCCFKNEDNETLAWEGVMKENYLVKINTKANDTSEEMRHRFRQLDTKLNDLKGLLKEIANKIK
Nature of the assay: Luminescence readout assay for measuring intracellular calcium (aequorin), hTRPM8 antagonism. The format is cell-based. To be noted: CHO cell line expressing human TRPM8 and aequorin; activation by icilin, L-menthol or cold buffer (table does not say which).
For the compound `CC(C)(C)NC(=S)N[C@@H](c1ccc(C(F)(F)F)cc1)c1ncccc1C(F)(F)F` [Example 123, (S)-1-tert-butyl-3-((4-(trifluoro-methyl)-phenyl)(3-(trifluoro-methyl)-pyridin-2-yl)-methyl)-thiourea], the IC50 was 190 nM.

For `O=C(Nc1cccc(I)c1)N[C@@H](c1ccc(C(F)(F)F)cc1)c1ncccc1C(F)(F)F` [Example 124, (S)-1-(3-iodophenyl)-3-((4-(trifluoro-methyl)-phenyl)(3-(trifluoro-methyl)-pyridin-2-yl)-methyl)urea (2,2,2-trifluoro-acetate)], the IC50 amounted to 708 nM.

`O=C(NCc1ccc(Br)cc1)N[C@@H](c1ccc(C(F)(F)F)cc1)c1ncccc1C(F)(F)F` [Example 125, (S)-1-(4-bromobenzyl)-3-((4-(trifluoro-methyl)-phenyl)(3-(trifluoro-methyl)-pyridin-2-yl)-methyl)urea (2,2,2-trifluoro-acetate)]: the IC50 is 561 nM. Next, `CCOc1cccc(NC(=O)N[C@@H](c2ccc(C(F)(F)F)cc2)c2ncccc2C(F)(F)F)c1` [Example 126, (S)-1-(3-ethoxyphenyl)-3-((4-(trifluoro-methyl)-phenyl)(3-(trifluoro-methyl)-pyridin-2-yl)-methyl)urea (2,2,2-trifluoro-acetate)]: 3140 nM; `O=C(NCC1CCCCC1)N[C@@H](c1ccc(C(F)(F)F)cc1)c1ncccc1C(F)(F)F` [Example 127, (S)-1-(cyclohexyl-methyl)-3-((4-(trifluoro-methyl)-phenyl)(3-(trifluoro-methyl)-pyridin-2-yl)-methyl)urea (2,2,2-trifluoro-acetate)]: 657 nM; `COc1cccc([C@@H](C)NC(=O)N[C@@H](c2ccc(C(F)(F)F)cc2)c2ncccc2C(F)(F)F)c1` [Example 128, 1-((R)-1-(3-methoxy-phenyl)ethyl)-3-((S)-(4-(trifluoro-methyl)-phenyl)(3-(trifluoro-methyl)-pyridin-2-yl)-methyl)urea (2,2,2-trifluoro-acetate)]: 4060 nM. The result for `O=C(N[C@@H](c1ccc(C(F)(F)F)cc1)c1ncccc1C(F)(F)F)N[C@H]1CCc2ccccc21` [Example 129, 1-((S)-2,3-dihydro-1H-inden-1-yl)-3-((S)-(4-(trifluoro-methyl)-phenyl)(3-(trifluoro-methyl)-pyridin-2-yl)-methyl)urea (2,2,2-trifluoro-acetate)] reads 2000 nM; that for `COc1ccc([C@@H](C)NC(=O)N[C@@H](c2ccc(C(F)(F)F)cc2)c2ncccc2C(F)(F)F)cc1` [Example 130, 1-((R)-1-(4-methoxy-phenyl)ethyl)-3-((S)-(4-(trifluoro-methyl)-phenyl)(3-(trifluoro-methyl)-pyridin-2-yl)-methyl)urea (2,2,2-trifluoro-acetate)], 3790 nM. The result for `CC(C)(C)CC(C)(C)NC(=O)N[C@@H](c1ccc(C(F)(F)F)cc1)c1ncccc1C(F)(F)F` [Example 131, (S)-1-((4-(trifluoro-methyl)-phenyl)(3-(trifluoro-methyl)-pyridin-2-yl)-methyl)-3-(2,4,4-trimethylpentan-2-yl)urea (2,2,2-trifluoro-acetate)] reads 666 nM; that for `O=C(NCCc1c(Cl)cccc1Cl)N[C@@H](c1ccc(C(F)(F)F)cc1)c1ncccc1C(F)(F)F` [Example 132, (S)-1-(2,6-dichlorophen-ethyl)-3-((4-(trifluoro-methyl)-phenyl)(3-(trifluoro-methyl)-pyridin-2-yl)-methyl)urea (2,2,2-trifluoro-acetate)], 673 nM; that for `CCOc1ccccc1CNC(=O)N[C@@H](c1ccc(C(F)(F)F)cc1)c1ncccc1C(F)(F)F` [Example 133, (S)-1-(2-ethoxybenzyl)-3-((4-(trifluoro-methyl)-phenyl)(3-(trifluoro-methyl)-pyridin-2-yl)-methyl)urea (2,2,2-trifluoro-acetate)], 1590 nM. For the compound `O=C(NCc1ccc(Cl)cc1)N[C@@H](c1ccc(C(F)(F)F)cc1)c1ncccc1C(F)(F)F` [Example 134, (S)-1-(4-chlorobenzyl)-3-((4-(trifluoro-methyl)-phenyl)(3-(trifluoro-methyl)-pyridin-2-yl)-methyl)urea (2,2,2-trifluoro-acetate)], the IC50 came out at 1070 nM.

As for `O=C(NCc1ccc(Cl)cc1Cl)N[C@@H](c1ccc(C(F)(F)F)cc1)c1ncccc1C(F)(F)F` [Example 135, (S)-1-(2,4-dichlorobenzyl)-3-((4-(trifluoro-methyl)-phenyl)(3-(trifluoro-methyl)-pyridin-2-yl)-methyl)urea (2,2,2-trifluoro-acetate)], the IC50 turned out to be 829 nM.

In the case of `COC(=O)[C@H](Cc1ccccc1)NC(=O)N[C@@H](c1ccc(C(F)(F)F)cc1)c1ncccc1C(F)(F)F` [Example 136, (S)-methyl 3-phenyl-2-(3-((S)-(4-(trifluoro-methyl)-phenyl)(3-(trifluoro-methyl)-pyridin-2-yl)-methyl)-ureido)-propanoate (2,2,2-trifluoro-acetate)], the IC50 was 4050 nM. For `CSc1ccccc1NC(=O)N[C@@H](c1ccc(C(F)(F)F)cc1)c1ncccc1C(F)(F)F` [Example 137, (S)-1-(2-(methylthio)-phenyl)-3-((4-(trifluoro-methyl)-phenyl)(3-(trifluoro-methyl)-pyridin-2-yl)-methyl)urea (2,2,2-trifluoro-acetate)], the IC50 turned out to be 156 nM. Next, `CC(=O)c1ccc(NC(=O)N[C@@H](c2ccc(C(F)(F)F)cc2)c2ncccc2C(F)(F)F)cc1` [Example 138, (S)-1-(4-acetylphenyl)-3-((4-(trifluoro-methyl)-phenyl)(3-(trifluoro-methyl)-pyridin-2-yl)-methyl)urea (2,2,2-trifluoro-acetate)]: 3720 nM; `O=C(Nc1ccc(F)c([N+](=O)[O-])c1)N[C@@H](c1ccc(C(F)(F)F)cc1)c1ncccc1C(F)(F)F` [Example 139, (S)-1-(4-fluoro-3-nitrophenyl)-3-((4-(trifluoro-methyl)-phenyl)(3-(trifluoro-methyl)-pyridin-2-yl)-methyl)urea (2,2,2-trifluoro-acetate)]: 1310 nM. With `Cc1ccc(NC(=O)N[C@@H](c2ccc(C(F)(F)F)cc2)c2ncccc2C(F)(F)F)cc1[N+](=O)[O-]` [Example 140, (S)-1-(4-methyl-3-nitrophenyl)-3-((4-(trifluoro-methyl)-phenyl)(3-(trifluoro-methyl)-pyridin-2-yl)-methyl)urea (2,2,2-trifluoro-acetate)], the IC50 is 1300 nM. Next, `COc1cc([N+](=O)[O-])ccc1NC(=O)N[C@@H](c1ccc(C(F)(F)F)cc1)c1ncccc1C(F)(F)F` [Example 141, (S)-1-(2-methoxy-4-nitrophenyl)-3-((4-(trifluoro-methyl)-phenyl)(3-(trifluoro-methyl)-pyridin-2-yl)-methyl)urea (2,2,2-trifluoro-acetate)]: 360 nM; `Cc1c(NC(=O)N[C@@H](c2ccc(C(F)(F)F)cc2)c2ncccc2C(F)(F)F)cccc1[N+](=O)[O-]` [Example 142, (S)-1-(2-methyl-3-nitrophenyl)-3-((4-(trifluoro-methyl)-phenyl)(3-(trifluoro-methyl)-pyridin-2-yl)-methyl)urea (2,2,2-trifluoro-acetate)]: 2180 nM; `Cc1ccc([N+](=O)[O-])c(NC(=O)N[C@@H](c2ccc(C(F)(F)F)cc2)c2ncccc2C(F)(F)F)c1` [Example 143, (S)-1-(5-methyl-2-nitrophenyl)-3-((4-(trifluoro-methyl)-phenyl)(3-(trifluoro-methyl)-pyridin-2-yl)-methyl)urea (2,2,2-trifluoro-acetate)]: 1300 nM. Next, `O=C(NCc1ccc(F)cc1)N[C@@H](c1ccc(C(F)(F)F)cc1)c1ncccc1C(F)(F)F` [Example 144, (S)-1-(4-fluorobenzyl)-3-((4-(trifluoro-methyl)-phenyl)(3-(trifluoro-methyl)-pyridin-2-yl)-methyl)urea (2,2,2-trifluoro-acetate)]: 541 nM; `Cc1ccccc1NC(=O)N[C@@H](c1ccc(C(F)(F)F)cc1)c1ncccc1C(F)(F)F` [Example 145, (S)-1-(o-tolyl)-3-((4-(trifluoro-methyl)-phenyl)(3-(trifluoro-methyl)-pyridin-2-yl)-methyl)urea (2,2,2-trifluoro-acetate)]: 474 nM. The result for `Cc1ccc(F)c(NC(=O)N[C@@H](c2ccc(C(F)(F)F)cc2)c2ncccc2C(F)(F)F)c1` [Example 146, (S)-1-(2-fluoro-5-methylphenyl)-3-((4-(trifluoro-methyl)-phenyl)(3-(trifluoro-methyl)-pyridin-2-yl)-methyl)urea (2,2,2-trifluoro-acetate)] reads 3770 nM; that for `Cc1cccc(CNC(=O)N[C@@H](c2ccc(C(F)(F)F)cc2)c2ncccc2C(F)(F)F)c1` [Example 147, (S)-1-(3-methylbenzyl)-3-((4-(trifluoro-methyl)-phenyl)(3-(trifluoro-methyl)-pyridin-2-yl)-methyl)urea (2,2,2-trifluoro-acetate)], 3830 nM.

For the compound `O=C(Nc1ccc(-c2noc(=O)[nH]2)cc1)N[C@@H](c1ccc(C(F)(F)F)cc1)c1ncccc1C(F)(F)F` [Example 148, (S)-1-(4-(5-Oxo-4,5-dihydro-1,2,4-oxadiazol-3-yl)phenyl)-3-((4-(trifluoromethyl)phenyl)(3-(trifluoromethyl)pyridin-2-yl)methyl)urea], the IC50 came out at 1610 nM.

Consider `O=C1Cc2cc(NC(=O)N[C@@H](c3ccc(C(F)(F)F)cc3)c3ncccc3F)ccc2N1` [Example 149], for which the IC50 was 55 nM.

In the case of `CC#Cc1cccnc1[C@@H](NC(=O)N[C@@H](C)C(F)(F)F)c1ccc(C(F)(F)F)cc1` [Example 150, 1-((S)-(3-(prop-1-yn-1-yl)pyridin-2-yl)(4-(trifluoro-methyl)-phenyl)-methyl)-3-((S)-1,1,1-trifluoro-propan-2-yl)-urea], the IC50 worked out at 48 nM.
